According to article PMC7933930, “Development of a small molecule that corrects misfolding and increases secretion of Z α1‐antitrypsin” (EMBO Molecular Medicine, 2021):

Key:
Cell Health = assay: Off‐target panel: Cell Health; format: cell-based
Experimental: (§1) GSK716 selectivity and PK properties were profiled in order to investigate the suitability of GSK716 for progression into in vivo studies and the potential for taking it forward as a clinical candidate for testing in humans. Since GSK716 results in loss of inhibitory activity of α1‐antitrypsin, the effect of the compound was assessed on other closely related serpins. […] Furthermore, there were no off‐target effects in a panel of assays considered predictive of known safety liabilities that precluded further development of GSK716 (Table EV1).

Serotonin 5HT2A = Serotonin 5HT2A (Homo sapiens, UniProt P28223); assay: Off‐target panel: Serotonin 5HT2A; format: cell-based
Experimental: as §1

Dopamine D2 = Dopamine D2 (Homo sapiens, UniProt P14416); assay: Off‐target panel: Dopamine D2; format: cell-based
Experimental: as §1

α1‐antitrypsin = assay: Equilibrium unfolding in guanidinium hydrochloride with bis‐ANS; format: biochemical, human; conditions: 50 µM GSK716, guanidinium hydrochloride; ~ 1.3 M in its absence
Excerpt: Polymerisation of α1‐antitrypsin involves transition through a transient intermediate state known as M*, that is readily populated by the Z variant (Dafforn et al, 1999; Knaupp et al, 2010). The M* conformational ensemble appears to be a distinct species between the native state conformation and that of the final polymer. One of the hallmarks of M* is its recognition by environment‐sensitive fluorescent reporter dyes. Thermal shift assays that make use of the dye SYPRO Orange report the stability of the protein native state against heat‐induced unfolding. […] Native state stability can also be probed by equilibrium unfolding using chemical denaturants, where a peak in bis‐ANS fluorescence corresponds with a maximally populated unfolding intermediate (James & Bottomley, 1998). […] The association of GSK716 induced a marked quenching and blue‐shift of the α1‐antitrypsin intrinsic tryptophan fluorescence spectrum (Fig 4D, inset). The rate of change in fluorescence during association of 10µM GSK716 was proportional to the propensity of α1‐antitrypsin mutants to form polymers in vivo: inert (M), mild (S), moderate (Baghdad) and severe (Z) α1‐antitrypsin (Fig 4D, top and bottom). […]

Muscarinic M2 = target: T1, Muscarinic M2 (Homo sapiens, UniProt P08172); assay: Off‐target panel: Muscarinic M2; format: cell-based
T1 sequence (P08172 1-466): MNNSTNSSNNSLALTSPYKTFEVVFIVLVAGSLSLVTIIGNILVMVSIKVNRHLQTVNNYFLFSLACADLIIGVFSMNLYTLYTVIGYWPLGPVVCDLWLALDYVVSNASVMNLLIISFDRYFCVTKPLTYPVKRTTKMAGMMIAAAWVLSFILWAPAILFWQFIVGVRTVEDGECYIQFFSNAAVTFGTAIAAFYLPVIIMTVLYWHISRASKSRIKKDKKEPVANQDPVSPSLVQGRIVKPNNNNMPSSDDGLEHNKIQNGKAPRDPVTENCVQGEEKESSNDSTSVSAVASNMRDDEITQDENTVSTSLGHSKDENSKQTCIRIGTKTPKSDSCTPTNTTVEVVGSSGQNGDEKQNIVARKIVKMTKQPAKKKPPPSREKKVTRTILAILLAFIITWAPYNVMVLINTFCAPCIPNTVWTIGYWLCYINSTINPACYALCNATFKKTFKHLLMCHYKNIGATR
Experimental: as §1

Chain of Serotonin 5HT2A (P28223 whole entry): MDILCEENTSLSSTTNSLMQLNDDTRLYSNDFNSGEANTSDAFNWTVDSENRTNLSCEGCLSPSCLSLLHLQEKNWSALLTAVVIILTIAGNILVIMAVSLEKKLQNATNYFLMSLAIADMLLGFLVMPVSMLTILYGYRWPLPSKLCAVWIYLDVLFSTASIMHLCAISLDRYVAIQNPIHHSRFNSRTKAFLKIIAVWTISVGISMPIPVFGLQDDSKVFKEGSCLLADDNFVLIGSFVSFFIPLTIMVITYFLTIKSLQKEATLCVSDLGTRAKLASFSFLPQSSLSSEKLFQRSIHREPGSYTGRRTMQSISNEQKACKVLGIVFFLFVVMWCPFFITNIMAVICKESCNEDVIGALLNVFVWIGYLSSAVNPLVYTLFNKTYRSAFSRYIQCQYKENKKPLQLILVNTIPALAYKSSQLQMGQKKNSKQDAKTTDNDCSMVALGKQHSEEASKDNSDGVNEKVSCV
Chain of Dopamine D2 (P14416 whole entry): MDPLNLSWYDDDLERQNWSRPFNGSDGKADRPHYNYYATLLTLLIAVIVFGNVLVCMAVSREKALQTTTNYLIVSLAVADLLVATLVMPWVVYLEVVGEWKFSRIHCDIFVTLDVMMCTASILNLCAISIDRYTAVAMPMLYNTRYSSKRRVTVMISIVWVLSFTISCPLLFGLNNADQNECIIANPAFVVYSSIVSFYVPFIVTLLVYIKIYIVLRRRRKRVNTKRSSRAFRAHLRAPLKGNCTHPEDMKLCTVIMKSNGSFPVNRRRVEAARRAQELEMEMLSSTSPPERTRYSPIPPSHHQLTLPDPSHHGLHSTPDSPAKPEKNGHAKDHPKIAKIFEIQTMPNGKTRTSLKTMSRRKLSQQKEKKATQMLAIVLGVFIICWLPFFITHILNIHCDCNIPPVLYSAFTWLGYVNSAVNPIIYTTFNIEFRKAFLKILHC

For `CCC[C@@H](NC(=O)c1cccc2c1CC(=O)N2)[C@@H](O)c1cccc(F)c1C` [GSK716], the “Mean (PXC50)” value (Cell Health; Membrane Permeability) was under 3.7, the “Mean (PXC50)” value (Cell Health; Mitochondrial Potential) was 3.8 and the “Mean (PXC50)” value (Cell Health; Nucleus (size)) was under 3.7. It also gave an EC50 (Serotonin 5HT2A) of over 25.1 µM, an IC50 (Serotonin 5HT2A) of over 25.1 µM and an EC50 (Dopamine D2) of over 100 µM. The IC50 (Dopamine D2) was over 100 µM, the “denaturant concentration at peak bis‐ANS fluorescence (maximally populated unfolding intermediate)” value (α1‐antitrypsin) was ~ 1.9 M and the EC50 (Muscarinic M2) was over 50.1 µM. The IC50 (Muscarinic M2) was over 50.1 µM.
